ChEMBL document CHEMBL3991601, “The target landscape of clinical kinase drugs” (Science, 2017)
Activity calls are given as the source filed them.

How the values were obtained:
[1] = target: Cyclin-dependent kinase 13 (Homo sapiens, UniProt Q14004)
GTP-binding protein 4 = GTP-binding protein 4 (Homo sapiens, UniProt Q9BZE4)
[2] = target: PAS domain-containing serine/threonine-protein kinase (Homo sapiens, UniProt Q96RG2)
[3] = target: T1, Discoidin domain-containing receptor 2 (Homo sapiens, UniProt Q16832)
T1 sequence (Q16832 whole entry): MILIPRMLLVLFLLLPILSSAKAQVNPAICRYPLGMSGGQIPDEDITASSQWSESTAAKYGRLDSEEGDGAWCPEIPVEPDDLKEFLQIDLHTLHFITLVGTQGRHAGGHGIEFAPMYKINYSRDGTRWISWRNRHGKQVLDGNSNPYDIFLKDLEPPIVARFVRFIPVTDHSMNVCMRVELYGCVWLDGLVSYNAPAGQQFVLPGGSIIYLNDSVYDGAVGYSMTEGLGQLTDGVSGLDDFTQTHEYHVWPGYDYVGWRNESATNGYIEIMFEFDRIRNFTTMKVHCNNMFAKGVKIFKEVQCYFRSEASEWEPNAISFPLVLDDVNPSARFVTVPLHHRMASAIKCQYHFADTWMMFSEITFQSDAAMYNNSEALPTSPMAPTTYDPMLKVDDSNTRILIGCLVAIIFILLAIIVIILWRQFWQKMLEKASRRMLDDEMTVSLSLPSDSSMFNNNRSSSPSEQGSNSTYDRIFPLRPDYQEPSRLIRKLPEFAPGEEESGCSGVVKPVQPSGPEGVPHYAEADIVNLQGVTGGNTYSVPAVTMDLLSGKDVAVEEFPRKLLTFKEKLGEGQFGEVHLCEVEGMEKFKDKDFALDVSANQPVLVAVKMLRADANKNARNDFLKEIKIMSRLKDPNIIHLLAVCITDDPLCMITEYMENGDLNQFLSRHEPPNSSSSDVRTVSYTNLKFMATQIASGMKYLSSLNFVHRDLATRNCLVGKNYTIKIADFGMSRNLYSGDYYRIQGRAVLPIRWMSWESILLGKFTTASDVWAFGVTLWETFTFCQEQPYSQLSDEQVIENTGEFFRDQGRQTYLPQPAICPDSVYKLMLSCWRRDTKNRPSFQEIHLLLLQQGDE

Midasin = Midasin (Homo sapiens, UniProt Q9NU22)
TGF-beta receptor type-1 = target: T2, TGF-beta receptor type-1 (Homo sapiens, UniProt P36897)
T2 sequence (P36897 whole entry): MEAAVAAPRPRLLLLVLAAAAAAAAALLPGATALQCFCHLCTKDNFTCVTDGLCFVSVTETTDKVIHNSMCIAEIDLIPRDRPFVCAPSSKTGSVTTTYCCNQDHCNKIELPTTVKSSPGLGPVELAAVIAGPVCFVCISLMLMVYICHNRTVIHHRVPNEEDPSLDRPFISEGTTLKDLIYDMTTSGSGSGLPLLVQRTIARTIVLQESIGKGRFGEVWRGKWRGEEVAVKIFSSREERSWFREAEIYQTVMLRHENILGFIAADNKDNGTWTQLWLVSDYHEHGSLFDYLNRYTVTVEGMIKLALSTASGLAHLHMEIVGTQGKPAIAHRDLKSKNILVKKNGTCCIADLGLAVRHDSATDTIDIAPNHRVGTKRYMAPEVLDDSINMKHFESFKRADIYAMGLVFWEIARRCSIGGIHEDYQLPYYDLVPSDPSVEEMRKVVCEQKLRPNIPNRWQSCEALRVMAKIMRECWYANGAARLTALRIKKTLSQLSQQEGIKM

[4] = target: GTP-binding nuclear protein Ran (Homo sapiens, UniProt P62826)
[5] = target: T3, Phosphorylase b kinase gamma catalytic chain, liver/testis isoform (Homo sapiens, UniProt P15735)
T3 sequence (P15735 whole entry): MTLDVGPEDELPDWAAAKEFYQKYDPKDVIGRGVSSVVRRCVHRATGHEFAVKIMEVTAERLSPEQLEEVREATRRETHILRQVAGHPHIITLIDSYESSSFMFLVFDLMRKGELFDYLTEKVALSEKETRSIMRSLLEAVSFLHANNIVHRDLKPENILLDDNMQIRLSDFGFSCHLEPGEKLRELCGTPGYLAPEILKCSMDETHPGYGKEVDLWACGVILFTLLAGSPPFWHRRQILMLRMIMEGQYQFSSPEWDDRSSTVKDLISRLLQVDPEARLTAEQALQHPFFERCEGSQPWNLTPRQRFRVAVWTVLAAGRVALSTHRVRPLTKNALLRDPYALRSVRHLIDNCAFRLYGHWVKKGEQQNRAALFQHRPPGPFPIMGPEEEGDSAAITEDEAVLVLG

ADP/ATP translocase 2 = target: T4, ADP/ATP translocase 2 (Homo sapiens, UniProt P05141)
T4 sequence (P05141 whole entry): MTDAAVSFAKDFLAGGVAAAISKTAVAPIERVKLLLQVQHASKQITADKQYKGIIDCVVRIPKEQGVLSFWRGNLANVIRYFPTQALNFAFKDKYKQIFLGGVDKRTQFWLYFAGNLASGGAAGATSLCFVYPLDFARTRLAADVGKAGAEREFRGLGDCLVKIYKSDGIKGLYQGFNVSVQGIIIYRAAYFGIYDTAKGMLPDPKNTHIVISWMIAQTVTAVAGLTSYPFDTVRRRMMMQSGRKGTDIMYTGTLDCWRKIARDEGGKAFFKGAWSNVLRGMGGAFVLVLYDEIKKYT

[6] = target: Serine/threonine-protein kinase N1 (Homo sapiens, UniProt Q16512)
Activated CDC42 kinase 1 = Activated CDC42 kinase 1 (Homo sapiens, UniProt Q07912)
[7] = target: T5, Serine/threonine-protein kinase Nek2 (Homo sapiens, UniProt P51955)
T5 sequence (P51955 whole entry): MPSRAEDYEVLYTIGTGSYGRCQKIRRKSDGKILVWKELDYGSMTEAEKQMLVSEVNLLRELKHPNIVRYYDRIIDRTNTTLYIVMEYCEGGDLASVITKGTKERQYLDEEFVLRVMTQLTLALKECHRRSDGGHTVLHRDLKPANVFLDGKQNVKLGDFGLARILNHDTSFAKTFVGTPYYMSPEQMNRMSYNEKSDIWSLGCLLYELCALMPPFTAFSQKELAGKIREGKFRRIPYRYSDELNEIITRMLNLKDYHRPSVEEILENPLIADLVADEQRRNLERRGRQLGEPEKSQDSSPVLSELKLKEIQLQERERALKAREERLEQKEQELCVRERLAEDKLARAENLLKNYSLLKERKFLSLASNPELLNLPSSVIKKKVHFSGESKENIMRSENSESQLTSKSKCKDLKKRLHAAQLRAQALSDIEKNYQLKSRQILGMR
Also: in the data inactive means no Kd found up to 30 µM.

Cyclin-dependent kinase 13, sequence (Q14004 whole entry): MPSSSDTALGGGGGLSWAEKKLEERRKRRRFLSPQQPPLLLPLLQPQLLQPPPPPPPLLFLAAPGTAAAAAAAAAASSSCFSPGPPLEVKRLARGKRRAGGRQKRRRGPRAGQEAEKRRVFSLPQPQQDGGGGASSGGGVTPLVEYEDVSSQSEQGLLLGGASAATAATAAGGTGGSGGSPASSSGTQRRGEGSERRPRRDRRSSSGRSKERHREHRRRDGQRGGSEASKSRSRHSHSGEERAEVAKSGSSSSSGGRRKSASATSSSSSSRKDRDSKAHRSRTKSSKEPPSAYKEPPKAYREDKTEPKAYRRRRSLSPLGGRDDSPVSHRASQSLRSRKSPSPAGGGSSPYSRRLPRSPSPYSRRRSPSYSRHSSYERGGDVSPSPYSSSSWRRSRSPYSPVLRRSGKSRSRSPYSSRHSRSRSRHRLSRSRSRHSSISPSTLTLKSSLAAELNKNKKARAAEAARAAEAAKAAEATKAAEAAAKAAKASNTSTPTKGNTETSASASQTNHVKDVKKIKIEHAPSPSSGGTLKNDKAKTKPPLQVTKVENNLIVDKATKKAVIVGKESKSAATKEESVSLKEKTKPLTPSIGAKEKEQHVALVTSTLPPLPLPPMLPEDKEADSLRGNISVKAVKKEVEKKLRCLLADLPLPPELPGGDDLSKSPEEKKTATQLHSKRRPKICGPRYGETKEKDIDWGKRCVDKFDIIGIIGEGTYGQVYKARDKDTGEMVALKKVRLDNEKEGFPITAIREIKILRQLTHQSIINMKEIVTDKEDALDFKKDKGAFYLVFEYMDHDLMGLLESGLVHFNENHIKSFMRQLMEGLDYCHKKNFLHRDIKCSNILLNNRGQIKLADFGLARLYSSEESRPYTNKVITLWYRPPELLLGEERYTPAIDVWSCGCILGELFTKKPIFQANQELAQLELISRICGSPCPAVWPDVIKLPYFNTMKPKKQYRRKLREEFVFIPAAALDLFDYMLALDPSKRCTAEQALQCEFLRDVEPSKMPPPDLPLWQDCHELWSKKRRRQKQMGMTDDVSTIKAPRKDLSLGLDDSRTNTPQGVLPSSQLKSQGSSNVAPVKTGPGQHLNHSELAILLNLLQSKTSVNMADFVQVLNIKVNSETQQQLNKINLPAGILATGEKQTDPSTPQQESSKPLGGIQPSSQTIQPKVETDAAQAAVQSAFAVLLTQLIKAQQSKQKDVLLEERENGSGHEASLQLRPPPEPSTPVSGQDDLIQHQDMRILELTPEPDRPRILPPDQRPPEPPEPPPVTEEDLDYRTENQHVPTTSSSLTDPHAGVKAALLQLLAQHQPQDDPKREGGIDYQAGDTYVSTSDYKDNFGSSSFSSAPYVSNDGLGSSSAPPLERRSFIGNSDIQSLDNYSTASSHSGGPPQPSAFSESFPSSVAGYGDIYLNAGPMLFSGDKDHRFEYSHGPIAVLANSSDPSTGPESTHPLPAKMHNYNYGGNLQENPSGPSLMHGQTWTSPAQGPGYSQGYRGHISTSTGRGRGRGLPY
Serine/threonine-protein kinase N1, sequence (Q16512 whole entry): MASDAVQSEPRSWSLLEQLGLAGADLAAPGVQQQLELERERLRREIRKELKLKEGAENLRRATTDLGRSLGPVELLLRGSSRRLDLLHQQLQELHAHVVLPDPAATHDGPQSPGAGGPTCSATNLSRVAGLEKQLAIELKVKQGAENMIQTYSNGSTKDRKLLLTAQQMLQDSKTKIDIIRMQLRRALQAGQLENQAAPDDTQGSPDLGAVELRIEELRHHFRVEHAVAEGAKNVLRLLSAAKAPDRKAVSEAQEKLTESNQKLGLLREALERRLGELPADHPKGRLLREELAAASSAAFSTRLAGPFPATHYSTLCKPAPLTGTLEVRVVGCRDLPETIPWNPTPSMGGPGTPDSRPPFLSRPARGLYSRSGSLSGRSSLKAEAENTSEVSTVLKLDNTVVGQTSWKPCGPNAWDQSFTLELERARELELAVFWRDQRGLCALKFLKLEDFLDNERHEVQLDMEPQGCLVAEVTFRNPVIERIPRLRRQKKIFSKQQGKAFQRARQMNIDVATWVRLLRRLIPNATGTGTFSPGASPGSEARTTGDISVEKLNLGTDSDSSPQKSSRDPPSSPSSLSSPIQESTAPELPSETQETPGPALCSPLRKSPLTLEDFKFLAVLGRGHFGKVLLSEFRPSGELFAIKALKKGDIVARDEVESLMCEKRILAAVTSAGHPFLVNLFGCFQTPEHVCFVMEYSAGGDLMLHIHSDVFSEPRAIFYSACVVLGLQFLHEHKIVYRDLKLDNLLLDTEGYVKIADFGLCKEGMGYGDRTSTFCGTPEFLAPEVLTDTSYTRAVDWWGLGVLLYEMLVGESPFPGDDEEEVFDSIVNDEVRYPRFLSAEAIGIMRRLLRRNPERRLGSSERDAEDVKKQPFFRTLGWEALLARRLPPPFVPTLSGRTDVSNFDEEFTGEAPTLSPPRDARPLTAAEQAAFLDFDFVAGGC
Activated CDC42 kinase 1, sequence (Q07912 whole entry): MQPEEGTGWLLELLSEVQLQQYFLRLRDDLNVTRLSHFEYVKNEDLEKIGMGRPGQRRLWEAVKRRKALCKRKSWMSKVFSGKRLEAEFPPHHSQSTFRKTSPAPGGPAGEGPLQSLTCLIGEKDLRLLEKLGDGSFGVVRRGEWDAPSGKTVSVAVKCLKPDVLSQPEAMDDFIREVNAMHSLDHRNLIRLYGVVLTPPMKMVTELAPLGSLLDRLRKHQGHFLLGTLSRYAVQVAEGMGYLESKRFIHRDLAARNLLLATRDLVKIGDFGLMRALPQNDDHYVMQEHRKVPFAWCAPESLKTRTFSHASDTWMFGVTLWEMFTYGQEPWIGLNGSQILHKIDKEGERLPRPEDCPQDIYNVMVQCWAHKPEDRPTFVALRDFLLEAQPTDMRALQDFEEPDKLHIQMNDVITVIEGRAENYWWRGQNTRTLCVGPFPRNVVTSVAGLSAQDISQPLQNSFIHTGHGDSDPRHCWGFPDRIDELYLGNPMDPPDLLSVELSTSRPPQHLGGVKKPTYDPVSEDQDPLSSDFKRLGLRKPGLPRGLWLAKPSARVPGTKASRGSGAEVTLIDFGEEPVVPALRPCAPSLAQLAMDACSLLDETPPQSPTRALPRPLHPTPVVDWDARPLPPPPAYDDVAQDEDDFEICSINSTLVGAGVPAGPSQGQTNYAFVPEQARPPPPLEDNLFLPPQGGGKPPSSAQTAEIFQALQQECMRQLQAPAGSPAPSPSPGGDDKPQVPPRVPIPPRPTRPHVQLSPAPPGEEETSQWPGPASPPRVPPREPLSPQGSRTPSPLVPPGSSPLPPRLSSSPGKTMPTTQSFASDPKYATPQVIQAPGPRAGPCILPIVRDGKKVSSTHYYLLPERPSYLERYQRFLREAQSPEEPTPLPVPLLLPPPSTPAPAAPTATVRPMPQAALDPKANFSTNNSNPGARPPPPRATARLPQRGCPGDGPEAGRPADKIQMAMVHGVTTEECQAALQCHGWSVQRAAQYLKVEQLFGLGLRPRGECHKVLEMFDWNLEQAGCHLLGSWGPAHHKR
PAS domain-containing serine/threonine-protein kinase, sequence (Q96RG2 whole entry, the tested form may be a part): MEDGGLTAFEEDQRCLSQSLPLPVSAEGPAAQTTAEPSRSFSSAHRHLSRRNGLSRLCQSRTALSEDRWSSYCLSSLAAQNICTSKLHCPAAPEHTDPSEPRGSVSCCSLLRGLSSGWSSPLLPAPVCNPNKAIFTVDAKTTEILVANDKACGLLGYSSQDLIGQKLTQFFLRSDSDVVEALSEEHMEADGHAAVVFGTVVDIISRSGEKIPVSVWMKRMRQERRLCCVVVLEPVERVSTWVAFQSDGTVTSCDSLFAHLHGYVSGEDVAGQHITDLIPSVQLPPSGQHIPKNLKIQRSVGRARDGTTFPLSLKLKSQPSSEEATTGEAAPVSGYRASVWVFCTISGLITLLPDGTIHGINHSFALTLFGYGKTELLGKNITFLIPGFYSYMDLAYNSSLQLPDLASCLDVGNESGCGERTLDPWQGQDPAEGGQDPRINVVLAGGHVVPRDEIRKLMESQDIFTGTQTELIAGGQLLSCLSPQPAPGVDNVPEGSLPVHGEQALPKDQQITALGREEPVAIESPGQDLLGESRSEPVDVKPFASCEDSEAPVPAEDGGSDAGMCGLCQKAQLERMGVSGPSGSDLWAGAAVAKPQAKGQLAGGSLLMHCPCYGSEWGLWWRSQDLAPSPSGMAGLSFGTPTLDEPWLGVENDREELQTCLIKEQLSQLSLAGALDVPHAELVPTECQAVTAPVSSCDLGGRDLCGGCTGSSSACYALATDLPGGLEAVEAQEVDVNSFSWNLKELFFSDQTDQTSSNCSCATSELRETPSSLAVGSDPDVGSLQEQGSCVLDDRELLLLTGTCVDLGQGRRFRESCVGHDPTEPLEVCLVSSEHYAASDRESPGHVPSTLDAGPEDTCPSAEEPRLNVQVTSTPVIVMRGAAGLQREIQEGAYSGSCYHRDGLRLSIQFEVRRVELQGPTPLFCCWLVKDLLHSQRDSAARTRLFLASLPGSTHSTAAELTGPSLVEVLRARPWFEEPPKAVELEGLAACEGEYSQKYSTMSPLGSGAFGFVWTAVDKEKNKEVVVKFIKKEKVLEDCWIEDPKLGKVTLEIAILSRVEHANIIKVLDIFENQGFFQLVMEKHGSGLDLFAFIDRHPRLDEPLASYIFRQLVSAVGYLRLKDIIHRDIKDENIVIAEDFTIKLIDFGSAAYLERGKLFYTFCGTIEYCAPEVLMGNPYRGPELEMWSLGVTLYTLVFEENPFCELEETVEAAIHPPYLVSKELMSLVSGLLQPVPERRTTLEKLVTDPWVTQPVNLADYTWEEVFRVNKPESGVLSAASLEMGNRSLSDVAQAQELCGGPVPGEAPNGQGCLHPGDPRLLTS

Compound	Kd [1]	Kd (GTP-binding protein 4)	Kd [2]	Kd [3]	Kd (Midasin)	Kd (TGF-beta receptor type-1)	Kd [4]	Kd [5]	Kd (ADP/ATP translocase 2)	Kd [6]	Kd (Activated CDC42 kinase 1)	Kd [7]
CC(C)(C)c1nc(-c2cccc(NS(=O)(=O)c3c(F)cccc3F)c2F)c(-c2ccnc(N)n2)s1 [DABRAFENIB]	> 30 µM (inactive)	> 30 µM (inactive)	> 30 µM (inactive)	> 30 µM (inactive)	> 30 µM (inactive)	2.38 µM (active)	> 30 µM (inactive)	> 30 µM (inactive)	> 30 µM (inactive)	> 30 µM (inactive)	–	–
COc1cc(Nc2ncc3c(n2)-c2ccc(Cl)cc2C(c2c(F)cccc2OC)=NC3)ccc1C(=O)O [ALISERTIB]	> 30 µM (inactive)	> 30 µM (inactive)	> 30 µM (inactive)	> 30 µM (inactive)	> 30 µM (inactive)	> 30 µM (inactive)	> 30 µM (inactive)	–	> 30 µM (inactive)	> 30 µM (inactive)	–	–
N#CC[C@H](C1CCCC1)n1cc(-c2ncnc3[nH]ccc23)cn1 [RUXOLITINIB]	–	> 30 µM (inactive)	> 30 µM (inactive)	–	> 30 µM (inactive)	–	> 30 µM (inactive)	–	> 30 µM (inactive)	–	–	–
Cc1nc(NC(=O)N2CCC[C@H]2C(N)=O)sc1-c1ccnc(C(C)(C)C(F)(F)F)c1 [ALPELISIB]	> 30 µM (inactive)	> 30 µM (inactive)	–	> 30 µM (inactive)	> 30 µM (inactive)	> 30 µM (inactive)	> 30 µM (inactive)	> 30 µM (inactive)	> 30 µM (inactive)	> 30 µM (inactive)	> 30 µM (inactive)	> 30 µM (inactive)
Cn1ncc(Cl)c1-c1cc(C(=O)N[C@H](CN)Cc2ccc(F)c(F)c2)oc1Cl [UPROSERTIB]	> 30 µM (inactive)	> 30 µM (inactive)	–	> 30 µM (inactive)	> 30 µM (inactive)	> 30 µM (inactive)	> 30 µM (inactive)	> 30 µM (inactive)	> 30 µM (inactive)	0.076 µM (active)	> 30 µM (inactive)	> 30 µM (inactive)
CC(=O)NCC(=O)N1[C@@H]2CC[C@H]1c1ccc(Nc3ncc(C(F)(F)F)c(NC4CCC4)n3)cc12 [PF-03814735]	> 30 µM (inactive)	–	> 30 µM (inactive)	> 30 µM (inactive)	> 30 µM (inactive)	> 30 µM (inactive)	> 30 µM (inactive)	–	> 30 µM (inactive)	2.94 µM (active)	–	–
C[C@@H](Oc1cc(C(=O)Nc2ccc(C(=O)N3CCN(C)CC3)cc2)nnc1N)c1c(Cl)ccc(F)c1Cl	> 30 µM (inactive)	> 30 µM (inactive)	–	> 30 µM (inactive)	> 30 µM (inactive)	> 30 µM (inactive)	> 30 µM (inactive)	> 30 µM (inactive)	> 30 µM (inactive)	> 30 µM (inactive)	> 30 µM (inactive)	> 30 µM (inactive)
